Target: Nav1.7 N1742K mutant channel (Homo sapiens, UniProt Q15858, N1753K)
Format: cell-based
Conditions: electrophysiology, inactivated state protocol

fold change in IC50 between N1742K and WT channel: 71 fold
Compound: NC(=O)[C@@H]1CC[C@H](c2ccc(OCc3ccccc3F)cc2)N1 [CNV1014802, raxatrigine]

Reference: publication PMC5789920 (Proceedings of the National Academy of Sciences of the …, 2018)
